Experimental data: PubChem BioAssay AID1361 (SRMLSC, 2008)
The source made the active and inactive calls. How the calls were made is not given here.

Assay: mitochondrial fusion inhibitors, confirmation, cell-based, chemical genetic, wild-type and mutant (AID 1361)
Conditions: Cell-based mitochondrial fusion phenotype, imaging
[1] = mutant cells, measured here: mutant cell line IC50

Row | SMILES | IC50 (WT cells) | IC50 [1]
1 | COc1ccc(-n2ncc3c(NCc4ccco4)ncnc32)cc1 | > 25 µM (inactive) | > 25 µM
2 | O=C(O)C1CCCCC1C(=O)Nc1ccc(F)cc1F (stereo not given) | > 25 µM (inactive) | > 25 µM
3 | O=C(CNC(=S)N(Cc1ccccc1)Cc1ccccc1F)NCCc1ccccc1 | 20.1 µM | > 25 µM
4 | COC(=O)C1CSc2[nH]c(=O)sc2C1c1ccc(OC)c(OC)c1 (stereo not given) | > 25 µM (inactive) | > 25 µM
5 | OCCN(CCO)CC(O)COc1ccc(C23CC4CC(CC(C4)C2)C3)cc1 (stereo not given) | > 25 µM (inactive) | > 25 µM
6 | CCCCCCc1nc2ccccc2c(=O)n1NC(=O)c1c(O)c2cccc3c2n(c1=O)CCC3 | 10.5 µM | > 25 µM
7 | O=C(COC(=O)c1ccccc1Cc1ccccc1)Nc1ccc(SC(F)F)cc1 | 5.92 µM | > 25 µM
8 | CNC(=S)N1CCN(c2ccc([N+](=O)[O-])cc2)CC1 | > 25 µM (inactive) | > 25 µM
9 | O=C(Nc1ccccc1Oc1ccccc1)c1cc([N+](=O)[O-])ccc1Cl | 6.46 µM | 19.6 µM
10 | Cc1ccc(-c2nnc(SCC(=O)N3CCOCC3)nc2-c2ccc(C)cc2)cc1 | > 25 µM (inactive) | > 25 µM
11 | Brc1cnc(N2CCCCC2)nc1N1CCOCC1 | > 25 µM (inactive) | > 25 µM
12 | CCCC12CN3CCN(CC(C3)/C1=N\NC(=O)c1ccc(C(C)(C)C)cc1)C2 | 6.28 µM | 20.2 µM
13 | CC(C)(C)[C@@H]1C=C(C(=O)N2CCN(Cc3ccccc3)CC2)O[C@H](OCc2ccc(CO)cc2)C1 | 23.8 µM | > 25 µM
14 | CC(C)(C)c1ccc(NC(=O)c2ccccc2)c([N+](=O)[O-])c1 | 24.9 µM (inactive) | > 25 µM
15 | Cc1ccc(S(=O)(=O)Nc2ccc(N=Nc3ccc(O)cc3)cc2)cc1 | 17 µM | > 25 µM
16 | CCc1cc(-c2n[nH]c(=S)n2-c2ccccc2C)cs1 | > 25 µM (inactive) | > 25 µM
17 | CNC(=S)NCCC(c1ccccc1)c1ccccc1 | > 25 µM (inactive) | > 25 µM
18 | Cc1sc(NC(=O)CSc2nnnn2C2CCCCC2)c(C#N)c1C | > 25 µM (inactive) | > 25 µM
19 | CC(C)N(C(=S)NC1CC2CCC1C2)c1ccccc1 (stereo not given) | 25 µM (inactive) | > 25 µM
20 | CC(=O)Nc1sc2c(c1C(c1ccc(Cl)cc1)N1CCOCC1)CCCC2 (stereo not given) | 13 µM | > 25 µM
21 | O=C1N(O)C2(C=CCCC2)/C(=N\O)C12CCCCC2 (stereo not given) | > 25 µM (inactive) | > 25 µM
22 | O=C(NC(Cc1c[nH]c2ccccc12)C(=O)Nc1ccc(OC(F)(F)F)cc1)c1cccs1 (stereo not given) | > 25 µM (inactive) | > 25 µM

Row | SMILES | IC50 (WT cells) | IC50 [1]
23 | Cc1ccc(C)c(N2CCN(C(=O)C3CCCCN3S(=O)(=O)c3ccc(F)cc3)CC2)c1 (stereo not given) | 18.3 µM | > 25 µM
24 | COc1cccc(CNC(=O)CNC(=S)N(Cc2ccccc2)Cc2ccccc2F)c1 | 23.1 µM | > 25 µM
25 | Cc1ccccc1OCC(=O)Nc1ccccc1N1CCC(C)CC1 | 16.1 µM | > 25 µM
26 | Nc1ccc2nn(-c3ccccc3)nc2c1 | > 25 µM (inactive) | > 25 µM
27 | CCCN(CCC)CCCNC(=O)CS(=O)Cc1nc(-c2ccc(OC)c(OC)c2)oc1C (stereo not given) | > 25 µM (inactive) | > 25 µM
28 | CC(C)c1ccc(NC(=O)c2sccc2-n2cccc2)cc1 | > 25 µM (inactive) | > 25 µM
29 | O=C(OC(C(=O)Nc1cccc(C(F)(F)F)c1)c1ccccc1)C1CCCCC1 (stereo not given) | 9.59 µM | > 25 µM
30 | O=C(Nc1ccccc1N1CCOCC1)c1cccc(F)c1 | 9.3 µM | 21.6 µM
31 | Cc1ccccc1Nc1scc(-c2ccc(Cl)cc2)[n+]1-c1ccccc1C | 8.24 µM | > 25 µM
32 | Cc1cccc(N(C)C(=S)Oc2ccc3ccccc3c2)c1 | 8.79 µM | > 25 µM
33 | CCOC(=O)c1c(-n2c(C)cc(C=C3C(=O)NC(=S)NC3=O)c2C)sc2c1CCCC2 | 7.21 µM | > 25 µM
34 | CCOC(=O)/C(=C\c1cccnc1)C(=O)c1cc(C(C)=O)c(Nc2ccccc2)s1 | 4.87 µM | > 25 µM
35 | COC(=O)c1c(NC(=O)CN2CCC3(O)CCCCC3C2c2ccc(F)cc2)sc(C)c1C (stereo not given) | 14.4 µM | > 25 µM
36 | COc1ccc(C(=NNc2ccccc2C(=O)O)c2ccc(OC)cc2)cc1 | 17.8 µM | > 25 µM
37 | Cc1ccc(SC(C)C(=O)Nc2ccccc2-c2ccccc2)cc1 (stereo not given) | 19.8 µM | > 25 µM
38 | c1csc(C(c2nnnn2C2CCCC2)N2CCCC3(CCCCC3)C2)c1 (stereo not given) | 4.94 µM | > 25 µM
39 | COc1ccc(NC(=S)NC(NC(=O)c2ccc(Cl)cc2Cl)C(Cl)(Cl)Cl)c([N+](=O)[O-])c1 (stereo not given) | 11.4 µM | > 25 µM
40 | C=CCn1c(COc2ccccc2-c2ccccc2)nnc1SCC(=O)NC(=O)NCc1ccco1 | > 25 µM (inactive) | > 25 µM
41 | COC(=O)CCC(=O)COc1ccc(OC)cc1C#N | > 25 µM (inactive) | > 25 µM
42 | c1ccc(Cn2c(SCc3cn4cccnc4n3)nnc2-c2ccco2)cc1 | > 25 µM (inactive) | > 25 µM
43 | CCOc1ccccc1NC(=O)C(NCC1CCCCC1)c1ccccc1 (stereo not given) | 14.3 µM | > 25 µM
44 | CC(C)CC(=O)NC(=S)N(Cc1ccccc1)Cc1ccccc1 | 19.2 µM | > 25 µM

Row | SMILES | IC50 (WT cells) | IC50 [1]
45 | Cc1ccc(C(=O)/C=C/c2c(C)nn(-c3ccccc3)c2Cl)cc1 | 20.2 µM | > 25 µM
46 | COc1ccc(C2CC(=O)c3cnc(Nc4cc(C)cc(C)c4)nc3C2)cc1 (stereo not given) | > 25 µM (inactive) | > 25 µM
47 | O=C(CCc1ccccc1)NC(=S)Nc1cccc(Br)c1 | 13.7 µM | 21.4 µM
48 | c1ccc2c(-c3c[nH]c4ccccc34)c3ccccc3nc2c1 | 15.3 µM | > 25 µM
49 | Cc1cccc(-c2noc(CN(C(=O)CCc3ccccc3)C(C)C)n2)c1 | > 25 µM (inactive) | 24.5 µM
50 | COc1ccc(C(=O)NN(C)c2nc(-c3ccccc3)nnc2C(F)(F)F)cc1 | > 25 µM (inactive) | > 25 µM
51 | C=CCn1c(C)c(C(C)=O)c(N2CCN(C(c3ccccc3)c3ccccc3)CC2)nc1=S | 13.3 µM | > 25 µM
52 | CCOC(=O)C1CCN(S(=O)(=O)c2c(C)n[nH]c2C)CC1 | > 25 µM (inactive) | > 25 µM
53 | COc1cccc(C2=CC(c3ccccc3)n3nnnc3N2)c1 (stereo not given) | > 25 µM (inactive) | > 25 µM
54 | O=C(NCC(c1cccnc1)N1CCOCC1)c1ccco1 (stereo not given) | > 25 µM (inactive) | > 25 µM
55 | COc1ccc(-c2nc3n(c(=O)c2C#N)CCCS3)cc1 | > 25 µM (inactive) | > 25 µM
56 | CCOC(=O)c1c(N)sc(C(O)(C(F)(F)F)C(F)(F)F)c1-c1ccccc1 | 20.3 µM | > 25 µM
57 | Cc1csc(NC(=O)c2c(O)c3c(n(CC(C)C)c2=O)CCCC3)n1 | 14.7 µM | > 25 µM
58 | N/C(Cc1ccccc1)=N\OC(=O)c1cccc2ccccc12 | 14.8 µM (inactive) | 14.6 µM
59 | Fc1ccc(C(CCCn2nnc(-c3cccnc3)n2)c2ccc(F)cc2)cc1 | 21.9 µM | > 25 µM
60 | CCCCC(=O)NC(c1ccc([N+](=O)[O-])cc1)c1c(O)ccc2ccccc12 (stereo not given) | > 25 µM (inactive) | > 25 µM
61 | COc1ccc(-c2nsc3c(N4CCCCC4C)ncnc23)cc1 (stereo not given) | 18.9 µM | > 25 µM
62 | Cc1ccc(NC(=O)c2cc(-c3ccccc3)nn2-c2ccccc2)c(Br)c1 | 4.51 µM | > 25 µM
63 | O=C(NC(=S)Nc1ccccc1N1CCCCC1)c1ccccc1 | 24.9 µM (inactive) | > 25 µM
64 | C=CCNC1=C(Cl)C(=O)N(c2cccc(Cl)c2Cl)C1=O | > 25 µM (inactive) | > 25 µM
65 | COc1ccc(-c2cn[nH]c2-c2ccc(OCc3ccc([N+](=O)[O-])cc3)cc2O)cc1 | 10 µM | > 25 µM
66 | Cc1ccc(C2CN(C)C3(C(=O)Nc4ccccc43)C23COc2ccccc2C3=O)cc1 (stereo not given) | 11 µM | 23.7 µM

Row | SMILES | IC50 (WT cells) | IC50 [1]
67 | N#Cc1ccc(NC(=O)Nc2ccc(Cl)cc2)cc1 | 9.83 µM | 13.6 µM
68 | COc1ccc(Cc2nn[nH]n2)cc1 | > 25 µM (inactive) | > 25 µM
69 | O=C(Nc1ccc(Cl)c(Cl)c1)c1ccc(Cn2cc(Cl)cn2)cc1 | 8.52 µM | 18.6 µM
70 | C1CCN=C(Nc2nc3c(s2)CCCC3)CC1 | > 25 µM (inactive) | > 25 µM
71 | Cc1cc(-c2sccc2C)nc(-n2cccc2)n1 | > 25 µM (inactive) | > 25 µM
72 | O=C(c1ccc(-c2nnc(-c3ccccc3)o2)cc1)N1CCCCCC1 | > 25 µM (inactive) | > 25 µM
73 | O=c1[nH][nH]c(-c2ccccc2)c1C=Nc1ccccc1 | > 25 µM (inactive) | > 25 µM
74 | CCCC(=O)NC(=S)Nc1cccc(Cl)c1N1CCCCC1 | 22.5 µM | > 25 µM
75 | CC(C)CCN(C(=S)Nc1cccc(F)c1)C(C)c1cccs1 (stereo not given) | 19.4 µM | > 25 µM
76 | Cc1ccc(NNC(=O)C(O)(c2cccc(C(F)(F)F)c2)c2cccc(C(F)(F)F)c2)cc1 | 22.3 µM | > 25 µM
77 | O=C(c1cnc(-c2ccc(Cl)cc2)s1)c1ccc(Cl)cc1Cl | 14.6 µM | > 25 µM
78 | Cc1cccc(-c2nnc(SCc3ccccc3)o2)c1 | > 25 µM (inactive) | > 25 µM
79 | O=C(CNC(=S)N(Cc1ccccc1)Cc1ccccc1F)NCc1ccc(Cl)cc1 | 5.67 µM | > 25 µM
80 | Cc1cccc(N2CCN(C(c3cccs3)c3nnnn3C(C)(C)C)CC2)c1C (stereo not given) | 10.9 µM | > 25 µM
81 | N#Cc1sc2nc(N3CCCCC3)c3c(c2c1N)CCCC3 | 20.2 µM | > 25 µM
82 | CCCCCC(=O)O[C@]1(C(C)=O)CC[C@H]2[C@@H]3CCC4=CC(=O)CC[C@]4(C)[C@H]3CC[C@@]21C | 12.7 µM | > 25 µM
83 | OCCNc1c2c(nc3ccccc13)CCCC2 | > 25 µM (inactive) | > 25 µM
84 | Fc1ccc(-c2csc3ncnc(N4CCc5ccccc5C4)c23)cc1 | 9.26 µM | > 25 µM
85 | O=C(N=C1SCC(=O)N1c1ccccc1Cl)c1ccccc1 | > 25 µM (inactive) | > 25 µM
